This passage reports AC50, EC50 and IC50 results from ChEMBL document CHEMBL1201862, “PubChem BioAssay data set” (2004).

The test system of one test is HeLa. Nature of the test: HeLa cell cytotoxicity, dose response, cytotoxicity control for MITF activator project, CellTiter-Glo luminescence, cherry-pick samples (AID 540259). It counts as functional, cell-based. To be noted: Homo sapiens.
Another test can be described thus: cells. It counts as functional, cell-based. To be noted: HEK-CNG.
For another test, the target named is T1, Galanin receptor type 3 (Homo sapiens, UniProt O60755).
T1 sequence (O60755 whole entry): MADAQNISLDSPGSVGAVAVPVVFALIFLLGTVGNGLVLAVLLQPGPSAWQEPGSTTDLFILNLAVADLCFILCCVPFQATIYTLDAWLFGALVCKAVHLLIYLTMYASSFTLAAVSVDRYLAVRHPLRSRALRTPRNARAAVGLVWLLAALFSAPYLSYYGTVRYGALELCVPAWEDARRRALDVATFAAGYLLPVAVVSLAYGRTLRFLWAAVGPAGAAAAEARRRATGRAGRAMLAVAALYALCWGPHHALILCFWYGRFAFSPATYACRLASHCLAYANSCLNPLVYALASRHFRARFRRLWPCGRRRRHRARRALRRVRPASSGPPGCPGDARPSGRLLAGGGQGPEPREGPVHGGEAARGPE
Nature of the test: Fluorescence-based cell-based primary high throughput dose response assay to identify antagonists of the Galanin Receptor 3 (GalR3). It counts as functional.

Test [1] is described as follows: NIH-3T3 fibroblast cytotoxicity, dose response, cytotoxicity control, cell-based, fluorescence, Alamar Blue, secondary assay (AID 2327).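 Further: NIH-3T3 mouse fibroblasts cultured with fluconazole at 8 µg/mL.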 It counts as functional. In general terms: Alamar Blue is a resazurin reagent that responds to reducing activity.
Test [2] can be described thus: C. albicans growth with fluconazole, confirmation, fluorescence, retest (AID 2467). The class given is functional, cell-based.
The target of test [3] is T2, Serine/threonine-protein phosphatase (Candida dubliniensis (strain CD36 / CBS 7987 / NCPF 3949 / NRRLY-17841) (Yeast), UniProt B9W6M3).
T2 sequence (B9W6M3 whole entry): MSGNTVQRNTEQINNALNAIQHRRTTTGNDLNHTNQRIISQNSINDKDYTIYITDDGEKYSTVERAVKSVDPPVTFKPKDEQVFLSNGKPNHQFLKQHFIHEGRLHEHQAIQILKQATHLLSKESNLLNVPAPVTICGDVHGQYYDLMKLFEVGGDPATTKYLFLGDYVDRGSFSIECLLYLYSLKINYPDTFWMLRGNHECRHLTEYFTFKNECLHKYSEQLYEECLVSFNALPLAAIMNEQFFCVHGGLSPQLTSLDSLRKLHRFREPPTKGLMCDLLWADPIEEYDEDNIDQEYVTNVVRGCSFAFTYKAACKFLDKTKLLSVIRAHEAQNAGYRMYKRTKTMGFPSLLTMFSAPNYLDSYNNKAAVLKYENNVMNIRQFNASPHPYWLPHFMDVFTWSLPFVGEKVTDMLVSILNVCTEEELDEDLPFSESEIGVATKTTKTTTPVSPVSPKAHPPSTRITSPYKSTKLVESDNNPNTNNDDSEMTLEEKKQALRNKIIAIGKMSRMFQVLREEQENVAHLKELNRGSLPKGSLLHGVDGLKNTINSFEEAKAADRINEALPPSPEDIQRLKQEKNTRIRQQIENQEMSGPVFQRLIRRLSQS
Nature of the test: calcineurin pathway inhibitors in yeast reporter, dose response, S. cerevisiae, CDRE-lacZ, luminescence, secondary (AID 2388).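 Further: yeast reporter cells carrying a calcineurin-responsive lacZ construct stimulated with calcium chloride; luminescent beta-galactosidase reporter signal in whole cells rather than isolated phosphatase activity; potency for inhibition where a drop in reporter signal means calcineurin blockade.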 It counts as functional, cell-based.

The nature of test [4]: control 3'UTR Renilla luciferase suppression, dose response, counter-screen for Shn3 inhibitor project, cell-based, Clone20-Shn3RL, cherry-picked (AID 624133). The class given is functional.
Test [5] in a line: HepG2 cell cytotoxicity, dose response, cytotoxicity control for Shn3 inhibitor project, CellTiter-Glo, cherry-picked (AID 624134). The class given is functional, cell-based. Background: ATP-based viability assays read luminescence as a measure of living cells.
A short description of test [6]: cytotoxicity in HEK-293T NF-kB-Luc cells, dose response, cytotoxicity control for B/T-cell NF-kB inhibitor project, cell-based, uHTS hits (AID 489019).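 Further: IC50 reflects cytotoxicity as loss of cell viability.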 It counts as functional.
The subject of the next test is INS1. Nature of the test: beta cell apoptosis inhibitors, cytokine rescue, dose response, luminescence, retest (AID 449756).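 Further: cell death triggered by IL-1 beta plus TNF-alpha plus IFN-gamma mixture; protective hits raise ATP signal compared with cytokine alone wells.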 It counts as functional, cell-based. To be noted: Rattus norvegicus.
Test [7] in a line: inhibitors of firefly luciferase expression or activity, dose response, H4 neuroglioma cells, luminescence (AID 1990). The class given is functional, cell-based.
Test [8] is described as follows: Luminescence Cell-Based Dose Response HTS to Identify Inhibitors of 5'UTR Stem-Loop Driven Prion Protein mRNA Translation in H4 Neuroglioblastoma Cells. [Related pubchem assays: 1827 (Project Summary), 1813 (Primary HTS)]. The class given is functional.
Test [9] can be described thus: inhibitors of SNCA 5'UTR-driven reporter translation, confirmation, H4 neuroglioma cells, luminescence (AID 1988). The class given is functional, cell-based.
The test system of a further test is Jurkat. The experiment in a line: antigen receptor-induced NF-kB inhibitors, dose response, Jurkat, luciferase reporter, luminescence, B- and T-cell (AID 489004).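 Further: NF-kB luciferase reporter Jurkat cells stimulated with PMA plus ionomycin.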 It counts as functional, cell-based. To be noted: Homo sapiens.
Test [10] has as its target COUP transcription factor 2 (Homo sapiens, UniProt P24468). Nature of the test: Luminescence-based cell-based high throughput dose response assay to identify inhibitors of COUP-TFII (NR2F2). The class given is functional.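 Further: HEK293 cells transiently cotransfected with COUP-TFII expression vector and reporter; luciferase reporter luminescence driven by COUP-TFII from the pX2-168 reporter plasmid.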
Test [11] has as its target ATP-dependent molecular chaperone HSP82 (Candida albicans (strain WO-1) (Yeast), UniProt C4YTQ8). The experiment in a line: loss of DOC-induced GRE-beta-galactosidase reporter signal, dose response, Hsp90 inhibitor project, S. cerevisiae, luminescence (AID 2400).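 Further: beta-galactosidase luminescence from glucocorticoid response element reporter as proxy for Hsp90 function; inhibitor potency where signal loss means Hsp90 inhibition.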 It counts as functional, cell-based.
Test [12] is described as follows: Shn3 3'UTR reporter inhibitors, dose response, cell-based, Clone20 osteoblasts, firefly luciferase, cherry-picked (AID 624132).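 Further: firefly luciferase luminescence from reporter carrying the Shn3 3'UTR in osteoblasts.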 It counts as functional.
For a further test, the target named is Hexokinase HKDC1 (Homo sapiens, UniProt Q2TB90). The experiment in a line: HKDC1 hexokinase inhibitors, SAR follow-up, biochemical, set 2 (AID 588355). It counts as functional.
Chain of Hexokinase HKDC1 (Q2TB90 whole entry): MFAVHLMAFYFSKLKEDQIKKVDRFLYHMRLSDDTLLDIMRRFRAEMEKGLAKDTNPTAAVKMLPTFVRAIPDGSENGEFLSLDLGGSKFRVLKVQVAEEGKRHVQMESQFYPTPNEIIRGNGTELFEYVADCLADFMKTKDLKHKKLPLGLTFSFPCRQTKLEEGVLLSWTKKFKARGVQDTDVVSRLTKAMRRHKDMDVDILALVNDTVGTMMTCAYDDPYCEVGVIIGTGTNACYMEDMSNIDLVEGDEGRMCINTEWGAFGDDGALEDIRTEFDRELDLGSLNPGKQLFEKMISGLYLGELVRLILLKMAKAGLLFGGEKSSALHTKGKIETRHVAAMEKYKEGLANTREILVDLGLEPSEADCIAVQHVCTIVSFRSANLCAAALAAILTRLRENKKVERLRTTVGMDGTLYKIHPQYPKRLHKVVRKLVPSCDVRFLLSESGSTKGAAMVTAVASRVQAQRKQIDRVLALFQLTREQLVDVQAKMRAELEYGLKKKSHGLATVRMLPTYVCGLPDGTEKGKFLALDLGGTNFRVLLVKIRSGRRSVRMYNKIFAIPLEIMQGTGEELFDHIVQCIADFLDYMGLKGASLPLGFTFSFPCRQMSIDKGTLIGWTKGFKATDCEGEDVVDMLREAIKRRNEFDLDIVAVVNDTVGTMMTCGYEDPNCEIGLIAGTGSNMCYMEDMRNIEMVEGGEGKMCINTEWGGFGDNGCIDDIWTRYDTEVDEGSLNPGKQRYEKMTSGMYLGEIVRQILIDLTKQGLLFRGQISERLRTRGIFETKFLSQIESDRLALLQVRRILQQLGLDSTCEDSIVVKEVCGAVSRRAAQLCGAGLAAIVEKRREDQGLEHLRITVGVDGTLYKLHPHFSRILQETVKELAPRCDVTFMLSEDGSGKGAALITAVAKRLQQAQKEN
In a further test the target is Hexokinase-1 (Homo sapiens, UniProt P19367). Nature of the test: HK1 enzyme inhibition by HKDC1 hits, SAR follow-up, selectivity assay for HKDC1 inhibitor project, biochemical, set 2, resazurin fluorescence coupled readout (AID 588356). The class given is functional.
Chain of Hexokinase-1 (P19367 whole entry): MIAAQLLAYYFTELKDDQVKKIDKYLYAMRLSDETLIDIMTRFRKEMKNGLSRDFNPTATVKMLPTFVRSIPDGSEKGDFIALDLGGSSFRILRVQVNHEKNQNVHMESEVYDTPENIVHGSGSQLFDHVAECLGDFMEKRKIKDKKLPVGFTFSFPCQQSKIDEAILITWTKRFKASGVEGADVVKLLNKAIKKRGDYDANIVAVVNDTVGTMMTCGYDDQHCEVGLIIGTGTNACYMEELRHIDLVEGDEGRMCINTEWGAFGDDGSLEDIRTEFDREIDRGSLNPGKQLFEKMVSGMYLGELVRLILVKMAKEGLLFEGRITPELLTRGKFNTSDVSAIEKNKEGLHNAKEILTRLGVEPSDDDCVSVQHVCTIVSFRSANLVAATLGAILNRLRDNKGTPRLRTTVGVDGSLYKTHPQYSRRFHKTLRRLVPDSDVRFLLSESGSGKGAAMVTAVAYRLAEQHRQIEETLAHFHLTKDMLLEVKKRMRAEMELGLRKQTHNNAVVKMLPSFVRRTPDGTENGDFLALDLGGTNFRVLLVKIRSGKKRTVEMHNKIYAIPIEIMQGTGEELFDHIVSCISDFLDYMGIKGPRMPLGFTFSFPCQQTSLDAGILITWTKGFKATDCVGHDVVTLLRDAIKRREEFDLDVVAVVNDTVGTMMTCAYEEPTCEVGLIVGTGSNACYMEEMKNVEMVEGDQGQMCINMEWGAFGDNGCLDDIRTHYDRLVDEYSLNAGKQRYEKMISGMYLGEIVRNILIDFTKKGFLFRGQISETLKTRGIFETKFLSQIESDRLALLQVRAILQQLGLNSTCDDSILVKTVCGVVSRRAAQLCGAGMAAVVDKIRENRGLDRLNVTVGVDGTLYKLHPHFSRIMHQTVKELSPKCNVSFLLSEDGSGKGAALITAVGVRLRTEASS

Active and inactive are the calls of the source.

Chain of ATP-dependent molecular chaperone HSP82 (C4YTQ8 whole entry): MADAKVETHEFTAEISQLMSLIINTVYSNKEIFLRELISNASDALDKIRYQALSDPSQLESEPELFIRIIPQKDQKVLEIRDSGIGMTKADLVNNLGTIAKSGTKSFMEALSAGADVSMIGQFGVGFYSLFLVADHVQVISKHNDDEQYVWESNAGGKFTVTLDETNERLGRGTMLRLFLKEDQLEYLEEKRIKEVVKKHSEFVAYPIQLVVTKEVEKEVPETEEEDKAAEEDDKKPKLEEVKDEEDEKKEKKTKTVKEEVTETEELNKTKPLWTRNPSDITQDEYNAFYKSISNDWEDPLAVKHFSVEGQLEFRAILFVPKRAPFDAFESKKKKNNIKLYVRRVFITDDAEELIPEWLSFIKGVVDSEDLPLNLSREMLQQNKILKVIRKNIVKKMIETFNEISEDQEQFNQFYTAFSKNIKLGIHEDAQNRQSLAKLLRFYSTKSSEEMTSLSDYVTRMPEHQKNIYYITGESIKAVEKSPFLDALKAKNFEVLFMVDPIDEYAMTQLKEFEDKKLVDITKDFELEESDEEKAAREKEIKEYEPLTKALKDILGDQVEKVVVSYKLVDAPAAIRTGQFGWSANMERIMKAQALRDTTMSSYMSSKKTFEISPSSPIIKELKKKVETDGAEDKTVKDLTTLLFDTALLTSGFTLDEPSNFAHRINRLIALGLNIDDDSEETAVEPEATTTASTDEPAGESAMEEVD
Chain of COUP transcription factor 2 (P24468 whole entry): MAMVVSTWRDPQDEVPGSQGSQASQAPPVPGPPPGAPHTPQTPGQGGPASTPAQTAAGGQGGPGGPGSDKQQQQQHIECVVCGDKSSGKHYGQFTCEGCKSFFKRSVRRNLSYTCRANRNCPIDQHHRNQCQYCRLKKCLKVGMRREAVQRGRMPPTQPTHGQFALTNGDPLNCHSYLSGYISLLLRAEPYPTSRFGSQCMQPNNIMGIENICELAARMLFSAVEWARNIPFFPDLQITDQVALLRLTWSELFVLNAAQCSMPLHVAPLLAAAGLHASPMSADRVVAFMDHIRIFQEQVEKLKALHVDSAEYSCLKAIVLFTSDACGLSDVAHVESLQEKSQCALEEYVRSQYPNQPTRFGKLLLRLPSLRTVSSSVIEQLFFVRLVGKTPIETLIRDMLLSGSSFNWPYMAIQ

As for `COc1ccc(C(S)=Nc2ccc(C)cc2)cc1`, the AC50 in the test on HeLa was 194 µM (active).
As for `COc1ccc(CCNc2ncnc3sc(C)cc23)cc1OC`, the EC50 is > 29.9 µM (inactive) in the test “cells”; > 150 µM (inactive) in test [1]; 767 nM (active) in test [2]; > 180 µM (inactive) in test [3]; > 120 µM (not active) in test [7]; > 120 µM (not active) in [8]. Also, the EC50 in test [9] is > 120 µM (not active); in test [11] it was > 150 µM (inactive). Besides, the IC50 on Galanin receptor type 3 is 430 nM (active); in test [6] it was > 80 µM (inactive); in the test on Jurkat, 45.3 µM (inactive); in [10] it was 2.21 µM (active). Also, the AC50 is 796 nM (active) in [4], 739 nM (active) in test [5], 902 nM (active) in the test with INS1 and < 260 nM (active) in test [12].
Turning to `CCOc1ccc(N2C(=O)c3cccnc3C2Nc2ccc(C)c(C)c2)cc1` (centres undefined), the IC50 is 77.1 µM (inactive) on Hexokinase HKDC1 and > 80 µM (inactive) at Hexokinase-1.

As usually defined, the AC50 is the concentration giving half of the maximal activity seen. The EC50 is the concentration that produces a half-maximal response. In general, IC50 refers to the concentration that gives 50% inhibition.
